A short description of this data set: solvent given as SMILES.

Our source for the absorption maximum values is the Deep4Chem optical property database.

For the molecule `CCCCCCCCc1ccc(-c2ccc(-c3cc(-c4ccc(-c5ccc(CCCCCCCC)s5)c5nsnc45)c4ccc5c(-c6ccc(-c7ccc(CCCCCCCC)s7)c7nsnc67)cc(-c6ccc(-c7ccc(CCCCCCCC)s7)c7nsnc67)c6ccc3c4c65)c3nsnc23)s1`, the absorption maximum (in ClC(Cl)Cl) amounted to 452 nm.
`CC(C)c1cc(N(C)C)c(C#N)c2c1-c1cccc3cccc-2c13` gave an absorption maximum (in O) of 430 nm.
For the setting “in ClCCl”, `C=CCN(CC=C)c1ccc(-c2cc(-c3ccc(N(CC=C)CC=C)cc3)cc(-c3ccc(N(CC=C)CC=C)cc3)c2)cc1` registered an absorption maximum of 315.85 nm.
Regarding `c1ccc(-c2cc(-c3ccccc3)cc(-c3ccc4c(c3)C3(c5ccccc5-4)c4ccccc4-c4c3c3c5ccccc5c(-c5cc(-c6ccccc6)cc(-c6ccccc6)c5)cc3c3ccccc43)c2)cc1` (stereo unspecified), the absorption maximum (in C1CCOC1) came to 387 nm.
Turning to `CN(C)c1cccc2c1-c1ccccc1C2=O`, the absorption maximum is, setting by setting: (in C1CCCCC1) 412 nm; (in CC#N) 439 nm; (in CCO) 438 nm; (in c1ccccc1) 433 nm.
Where the note is “in ClCCl”, `C(=C\c1nc(/C=C/c2ccc(N(c3ccccc3)c3ccccc3)cc2)cc(/C=C/c2ccc(N(c3ccccc3)c3ccccc3)cc2)n1)/c1ccccc1` came in with an absorption maximum of 430 nm.
For the molecule `CCCCCCn1c2ccccc2c2cc3c4cc5c6ccccc6n(CCCCCC)c5cc4c4cc5c(C)cc(=O)oc5cc4c3cc21`, the absorption maximum (in ClC(Cl)Cl) was found to be 393 nm.
Molecule `c1ccc2c(c1)OB1Oc3ccccc3-c3c1c-2c1c2c3-c3ccccc3OB2Oc2ccccc2-1` returned an absorption maximum (in ClCCl) of 405 nm.
Regarding `O=P1(c2ccccc2)C2=C(c3ccccc31)S(=O)(=O)c1ccccc12` (stereo unspecified), the absorption maximum is recorded as 380 nm (in C1CCCCC1), 383 nm (in CC#N), 386 nm (in CCO) and 386 nm (in ClCCl).
Turning to `O=Cc1ccc(C#CC(C#Cc2ccc(C=O)o2)=Cc2ccc(C=C(C#Cc3ccc(C=O)o3)C#Cc3ccc(C=O)o3)s2)o1`, where the note is “in ClC(Cl)Cl”, the absorption maximum amounted to 516 nm.
For the molecule `CC1=C2C=CC(C)=[N+]2[B-](F)(F)n2cccc21`, the absorption maximum by setting is: (in CCCCCC) 499 nm; (in CO) 494 nm; (in ClCCl) 498 nm.
`F[B-]1(F)n2c(Oc3ccccc3)c(Cl)c3c2C(=C2C(Br)=C(Cl)C(Oc4ccccc4)=[N+]21)Oc1ccccc1-3` registered an absorption maximum (in ClCCl) of 472 nm.
As for `c1ccc2c(-c3cc4c(ccc5sccc54)s3)cccc2c1`, the absorption maximum (in ClCCl) is recorded as 307 nm.
Where the note is “in O”, `CC[n+]1c(-c2ccccc2)c2cc(N)ccc2c2ccc(NC(N)=[NH2+])cc21` yielded an absorption maximum of 444 nm.
Regarding `c1ccc(-n2nc(-c3ccc(-c4ccc5c(c4)C(c4ccccc4)(c4ccccc4)c4ccccc4-5)cc3)nc2-c2ccccn2)cc1`, the absorption maximum (in ClCCl) is given as 323 nm.
Where the note is “in CO”, `C(=C\c1cc[n+]2ccc(/C=C/c3ccsc3)cc2c1)/c1ccsc1` yielded an absorption maximum of 432 nm.
Regarding `N#Cc1ccc2c(c1)CCc1nc(-c3ccc([N+](=O)[O-])cc3)c3c(c1-2)CCc1cc(C#N)ccc1-3`, the absorption maximum by setting is: (in C1CCOC1) 331 nm; (in CC#N) 349 nm; (in CCCCCC) 350 nm; (in CCOC(C)=O) 329 nm; (in CO) 333 nm; (in CS(C)=O) 360 nm. Further, the absorption maximum runs as follows: (in Cc1ccccc1) 343 nm; (in ClCCl) 345 nm.
The molecule `CC(C)c1cccc(C(C)C)c1-n1c(=O)c2cc3nc(-c4ccccc4)c4cc5c(=O)n(-c6c(C(C)C)cccc6C(C)C)c(=O)c6cc7c(-c8ccccc8)nc8cc(c1=O)c2c1c3c4c(c56)c7c81` registered an absorption maximum (in ClC(Cl)Cl) of 480 nm.
Same read-out and setting: with `C(#Cc1ccccc1)C(C#Cc1ccccc1)=Cc1ccc2cc(C=C(C#Cc3ccccc3)C#Cc3ccccc3)ccc2c1` the figure was 418 nm.
The molecule `Cn1c(=O)nc2n(C)c3ccccc3nc-2c1=O` came in with an absorption maximum (in CC1CCCO1) of 460 nm and an absorption maximum (in CC#N) of 437 nm.
`FC(F)(F)c1ccc(C#Cc2cc(C#Cc3ccc(C(F)(F)F)cc3)c3ccc4c(C#Cc5ccc(C(F)(F)F)cc5)cc(C#Cc5ccc(C(F)(F)F)cc5)c5ccc2c3c54)cc1` had an absorption maximum (in ClCCl) of 467 nm.
On to `Cc1ccc(C)n1-c1ccccc1`, for which the absorption maximum came out at 234 nm (in CC#N) and 240 nm (in CCCCCC).
As to `CC(=O)Nc1ccccc1C(=O)OC1CC(C)CCC1C(C)C` (stereo unspecified), the absorption maximum worked out at 315 nm (in C1CCCCC1); 310 nm (in CC#N); 310 nm (in CCO); 307 nm (in CO); 313 nm (in Cc1ccccc1); 312 nm (in ClC(Cl)Cl). Where the note is “in ClCCl”, this molecule returned an absorption maximum of 310 nm.
For the setting “in ClC(Cl)Cl”, `COc1ccc(C2CC(=O)Oc3c2c2nc4ccccc4nc2c2ccccc32)cc1` (stereo unspecified) gave an absorption maximum of 406 nm.
Under “in C1CCCCC1”, `N#Cc1cc(-c2ccccc2)c(N2c3ccccc3Oc3ccccc32)c(-c2ccccc2)c1` showed an absorption maximum of 405 nm.
For the setting “in C1CCOC1”, `C(=C\c1c2ccccc2cc2ccccc12)/c1c2ccccc2cc2ccccc12` showed an absorption maximum of 400 nm.
With `COc1ccc2ccc(O)cc2c1`, the absorption maximum (in O) is reported as 325 nm.
As to `CC(C)(C)c1ccc(-c2ccc(C(C)(C)C)cc2)cc1`, the absorption maximum (in C1CCCCC1) turned out to be 256 nm.
Under “in ClCCl”, `COc1ccc(N(c2ccccc2)c2ccc3ccc4c(N(c5ccccc5)c5ccc(OC)cc5)ccc5ccc2c3c54)cc1` showed an absorption maximum of 432 nm.
Molecule `COc1ccc(-c2cc3ccccc3p2-c2ccccc2)cc1` (stereo unspecified) returned an absorption maximum (in C1CCOC1) of 340 nm.
For the molecule `CSc1sc(C(C)=O)c2nn[nH]c(=O)c12`, the absorption maximum is, setting by setting: (in C1CCOC1) 392.5 nm; (in CC#N) 393 nm; (in CCO) 397 nm; (in CN(C)C=O) 404 nm; (in CO) 396 nm; (in CS(C)=O) 400.5 nm.
With `Cc1ccc(C(=O)/N=c2\oc3cccc4c5c(-c6ccccc6)oc6cccc(c(c2-c2ccccc2)c34)c65)cc1`, the absorption maximum (in ClC(Cl)Cl) stood at 385 nm.
In the case of `COc1ccc2c(c1)CCC1=C(c3ccccc3)C3=C(c4ccc5cccc(O)c5n4)c4c(-c5ccccc5)c5c(n4[B-](F)(F)[N+]3=C12)-c1ccc(OC)cc1CC5`, the absorption maximum (in O) was 660 nm.
`O=C1c2cccc3c(C#CC#Cc4ccc5c6c(cccc46)C(=O)N(c4ccccc4)C5=O)ccc(c23)C(=O)N1c1ccccc1` came in with an absorption maximum (in ClCCl) of 386 nm.
Molecule `CC(C)(C)c1ccc(Oc2cc3c4c(cc(Oc5ccc(C(C)(C)C)cc5)c5c6c(Oc7ccc(C(C)(C)C)cc7)cc7c8c(cc(Oc9ccc(C(C)(C)C)cc9)c(c2c45)c86)C(=O)OC7=O)C(=O)OC3=O)cc1` came in with an absorption maximum (in ClC(Cl)Cl) of 581 nm.
The molecule `COc1ccc(-c2cc3c(o2)=CC2=C(C(F)(F)F)c4cc5oc(-c6ccc(OC)cc6)cc5n4[B-](F)(F)[N+]=32)cc1` displayed an absorption maximum (in ClC(Cl)Cl) of 723 nm.
`COC(=O)c1cc(=O)n(C)c2cc(-c3cccc(OC)c3)sc12` had an absorption maximum (in CC#N) of 394 nm and an absorption maximum (in ClCCl) of 394 nm.
Consider `CN1/C(=C/C=C(/C=C/c2sc3ccccc3[n+]2C)c2cc(F)cc(F)c2)Sc2ccccc21`, for which the absorption maximum worked out at 644 nm (in CCO), 641 nm (in CO), 651 nm (in CS(C)=O) and 638 nm (in O).
For `C#Cc1ccc(-c2nc(-c3ccc(C#C)s3)nc(-c3ccc(C#C)s3)n2)s1`, the absorption maximum (in ClCCl) came to 348 nm.
